Source: patent US20070269494A1, “Compositions and methods for enhancing active agent absorption” (Nexus Pharma, Inc., priority 2006, published 2007)

Test system: Sprague-Dawley rats
Test: Blood glucose depression by intracolonically administered bovine pancreatic insulin with absorption enhancer
Type: in vivo
Details: for Blood glucose as % of basal level: enhancer 0 mg/kg (insulin without enhancer), intracolonic, rats
Procedure: It is neutralized by 1 equivalent of sodium hydroxide. The pH is adjusted to 7-8 by 1N HCl and saturated sodium bicarbonate. Bovine pancreatic insulin (1.75 mL; Sigma, 10 mg/mL; in pH 8.2 HEPES buffer) is added and mixed by gentle swirling. The solution density is determined so that the required dose may be calculated.
The solution is then given to Sprague-Dawley rats (female, 250-300 g, n=3), intracolonically. Blood samples are taken from the tail vein and glucose levels measured using an OneTouch® UltraSmart® blood glucose meter.
As insulin reduces glucose levels in the blood, a depression in glucose levels indicates insulin reaching the blood efficaciously.

Row | Molecule | 50% depression at 60 min. (blood glucose from basal level) (enhancer dose 200 mg/Kg, insulin 7 mg/Kg, procedure of Example 12) | Blood glucose as % of basal level (0 min) [%] | Blood glucose as % of basal level (30 min) [%] | Blood glucose as % of basal level (60 min) [%] | Blood glucose as % of basal level (90 min) [%] | Blood glucose as % of basal level (120 min) [%] | Blood glucose as % of basal level (150 min) [%] | Blood glucose as % of basal level (180 min) [%] | Blood glucose as % of basal level (210 min) [%] | Blood glucose as % of basal level (240 min) [%]
1 | COC(=O)c1ccc(NC(=O)CCC(=O)O)cc1O [Example 20, methyl 4-(3-carboxy-propionylamino)] | negative (a 50% reduction in glucose levels was not reached in 60 minutes) |  |  |  |  |  |  |  |  | 
2 | bovine pancreatic insulin: Bovine pancreatic insulin (Sigma, 10 mg/mL; in pH 8.2 HEPES buffer), the active agent co-administered |  | 100 | 94 ± 4 | 102 ± 7 | 105 ± 3 | 107 ± 7 | 94 ± 7 | 111 ± 7 | 113 ± 4 | 100 ± 7
